Source: article PMC10096453, “One-Pot Synthesis and Evaluation of Antioxidative Stress and Anticancer Properties of an Active Chromone Derivative” (Molecules, 2023)

How the values were obtained:
[1] = test system: HeLa cells; test: Apoptosis, Annexin V & Dead Cell flow cytometry; assay type: cell-based; conditions: IC50 concentration, 24 h
Experimental: Examining apoptosis induction by some samples was confirmed by the determination of annexin V (p ≤ 0.05) using the IC50 for 2b, 2e, 2f, 2j, and quercetin in the HeLa cell line (Figure 5a).
HeLa cells were seeded overnight at 1 × 10^5 cells/1.5 mL/well in a 6-well plate. […] The cells were […] and washed with PBS. The collected cells were diluted with serum-free medium to a suitable volume. The 100 μL of cell suspension was added to 100 μL of Muse^TM Annexin V & Dead Cell reagent and incubated for 20 min at room temperature. Cells were analyzed by flow cytometry (Guava Muse Cell Analyzer, Luminex, Austin, TX USA) with Guava suite software 3.4.

[2] = test system: HEK293 cells; test: Protection against H2O2-induced cytotoxicity (MTT); assay type: cell-based; conditions: 100 μM; HEK293, 7.5 mM H2O2 30 min
Experimental: The synthesized compounds were examined for the ability of the compounds to protect cells exposed to oxidative stress. Six active compounds from the antioxidant test, 2b, 2d, 2e, 2f, 2j, and 3i, were selected to study the ability of oxidative stress protection. The HEK293 cells were treated with 7.5 mM hydrogen peroxide for 30 min; samples and quercetin were added, and cell viability was investigated at 12 and 24 h treatment. The percentage of viable cells in each sample was calculated using the untreated cell as 100% survival (Figure 3).
Figure 3 Protective effect of synthesized compounds on H2O2-induced cytotoxicity in cultured HEK cells (means ± SD, n = 3). Data (cell viability, measured by the MTT assay) were expressed as a percentage of the control group, which is 100%. The results were calculated from three independent experiments and are shown as mean ± SD. Compared to the H2O2 model group, the p values were calculated using a one-way ANOVA with Tukey (Turkey HSD) multiple comparison analysis; * p < 0.05 at 12 h treatment, # p < 0.05 at 24 h treatment.

SMILES	Apoptosis induction [1]	Change in dead phase compared to the control [1]	Change in early apoptosis phase compared to the control [1]	Change in late apoptosis phase compared to the control [1]	Change in live phase compared to the control [1] [%]	Protection of cells from oxidative stress [2]
O=C(c1ccccc1)c1c(-c2ccccc2)oc2c(O)c(O)ccc2c1=O [2f, 3-Benzoyl-7,8-dihydroxy-2-phenyl-4H-chromen-4-one]	induced apoptosis in tumor cells	+5.8%	+6.3%	+1.2%	−12.1	able to protect cells from oxidative stress
O=C(Oc1ccc2c(=O)c(C(=O)c3ccccc3)c(-c3ccccc3)oc2c1O)c1ccccc1 [2j, 3-Benzoyl-8-hydroxy-4-oxo-2-phenyl-4H-chromen-7-yl benzoate]						able to protect cells from oxidative stress
